Structures can show the parent of a compound that is named as a salt. Where only a bound is given, the exact number is not on record here.

The subject of one test is YAP-TEAD interaction. The test can be described thus: SK-HEP-1 reporter assay (8xTEAD responsive elements driving NanoLuc luciferase). The format is cell-based. Conditions: Homo sapiens, SK-HEP1, SK-HEP-1 reporter assay; class symbols. An outline of the steps: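 SK-HEP-1 cells stably carrying 8×TEAD-driven NanoLuc treated in duplicate, 10-point dose from 30 μM final, 0.3% DMSO, 24 h at 37° C. Luminescence after NanoGlo lysis/substrate addition; IC50 calculated from dose response.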
On the technique in general: In a reporter assay the amount or activity of a reporter protein is the signal.
The IC50 is the concentration that gives 50% inhibition. As for `Cn1cc2c3cc(C(=O)NC4CCNCC4)ccc3n(-c3ccc(C(F)(F)F)cc3)c2n1` [Example C203, 2-methyl-N-(piperidin-4-yl)-8-[4-(trifluoromethyl)phenyl]-2H,8H-pyrazolo[3,4-b]indole-5-carboxamide trifluoroacetate], the IC50 is 100 to 10000 nM. With `Cn1cc2c3cc(C(N)=O)ccc3n(C3CC4(C3)CC(F)(F)C4)c2n1` [Example C205, 8-{6,6-difluorospiro[3.3]heptan-2-yl}-2-methyl-2H,8H-pyrazolo[3,4-b]indole-5-carboxamide], the IC50 was 100 to 10000 nM. As to `CNC(=O)c1ccc2c(c1)c1cn(C)nc1n2C1CC2(C1)CC(F)(F)C2` [Example C206, 8-{6,6-difluorospiro[3.3]heptan-2-yl}-N,2-dimethyl-2H,8H-pyrazolo[3,4-b]indole-5-carboxamide], the IC50 lay in the range of 10 to 100 nM. On the same count and under the same terms, as for `C[C@H](CO)NC(=O)c1ccc2c(c1)c1cn(C)nc1n2C1CC2(C1)CC(F)(F)C2` [Example C207, 8-{6,6-difluorospiro[3.3]heptan-2-yl}-N-[(2R)-1-hydroxypropan-2-yl]-2-methyl-2H,8H-pyrazolo[3,4-b]indole-5-carboxamide], the figure is 100 to 10000 nM; as for `Cn1cnc2c1c1cc(C3CC(n4ccnn4)=NO3)ccc1n2-c1ccc(C(F)(F)F)cc1` (centres unmarked) [Example C211, 1-(5-{1-methyl-4-[4-(trifluoromethyl)phenyl]-1H,4H-imidazo[4,5-b]indol-7-yl}-4,5-dihydro-1,2-oxazol-3-yl)-1H-1,2,3-triazole], 100 to 10000 nM. In the case of `Cn1cnc2c1c1cc(C3CC(n4nccn4)=NO3)ccc1n2-c1ccc(C(F)(F)F)cc1` (centres unmarked) [Example C212, 2-(5-{1-methyl-4-[4-(trifluoromethyl)phenyl]-1H,4H-imidazo[4,5-b]indol-7-yl}-4,5-dihydro-1,2-oxazol-3-yl)-2H-1,2,3-triazole], the IC50 was 100 to 10000 nM.

In turn, `Cn1cc2c3cc(C(=O)NC4CCNCC4(F)F)ccc3n(-c3ccc(C(F)(F)F)cc3)c2n1` (centres unmarked) [Example C217, N-(3,3-difluoropiperidin-4-yl)-2-methyl-8-[4-(trifluoromethyl)phenyl]-2H,8H-pyrazolo[3,4-b]indole-5-carboxamide] returned an IC50 of more than 10000 nM.

For the compound `Cn1cc2c3cc(C(=O)NC4(CO)CCNCC4)ccc3n(-c3ccc(C(F)(F)F)cc3)c2n1` [Example C218, N-[4-(hydroxymethyl)piperidin-4-yl]-2-methyl-8-[4-(trifluoromethyl)phenyl]-2H,8H-pyrazolo[3,4-b]indole-5-carboxamide], the IC50 lay in the range of 100 to 10000 nM. In turn, `Cn1cc2c3cc(NC(=O)CCN)ccc3n(-c3ccc(C(F)(F)F)cc3)c2n1` [Example C221, 3-amino-N-{2-methyl-8-[4-(trifluoromethyl)phenyl]-2H,8H-pyrazolo[3,4-b]indol-5-yl}propanamide] showed an IC50 of 100 to 10000 nM. The compound `CNCCC(=O)Nc1ccc2c(c1)c1cn(C)nc1n2-c1ccc(C(F)(F)F)cc1` [Example C222, N-{2-methyl-8-[4-(trifluoromethyl)-phenyl]-2H,8H-pyrazolo[3,4-b]indol-5-yl}-3-(methylamino)propanamide] gave an IC50 of 100 to 10000 nM. Take `Cn1cc2c3cc(NC(=O)CC4CCNC4)ccc3n(-c3ccc(C(F)(F)F)cc3)c2n1` (centres unmarked) [Example C223, N-{2-methyl-8-[4-(trifluoromethyl)-phenyl]-2H,8H-pyrazolo[3,4-b]indol-5-yl}-2-(pyrrolidin-3-yl)acetamide]: the IC50 fell in the range of 100 to 10000 nM. On the same count and under the same terms, as for `Cn1cc2c3cc(NC(=O)CNC4CCNC4)ccc3n(-c3ccc(C(F)(F)F)cc3)c2n1` (centres unmarked) [Example C224, N-{2-methyl-8-[4-(trifluoromethyl)phenyl]-2H,8H-pyrazolo[3,4-b]indol-5-yl}-2-[{pyrrolidin-3-yl)amino]acetamide], the figure is 100 to 10000 nM. Take `Cn1cc2c3cc(C(=O)N[C@@H](CO)c4ccccn4)cnc3n(-c3ccc(C(F)(F)F)cc3)c2n1` [Example C228, N-[(1R)-2-hydroxy-1-(pyridin-2-yl)ethyl]-4-methyl-7-[4-(trifluoromethyl)phenyl]-4,5,7,9-tetraazatricyclo[6.4.0.0^2,6]dodeca-1(8),2,5,9,11-pentaene-11-carboxamide]: the IC50 lay in the range of 10 to 100 nM. In turn, `Cn1cc2c3nc(C(N)=O)ccc3n(-c3ccc(C(F)(F)F)cc3)c2n1` [Example C229, 4-methyl-7-[4-(trifluoromethyl)phenyl]-4,5,7,12-tetraazatricyclo[6.4.0.0^2,6]dodeca-1(8),2,5,9,11-pentaene-11-carboxamide] yielded an IC50 of 100 to 10000 nM. `Cn1nc2c3cc(C4CC(n5ccnn5)=NO4)ccc3n(-c3ccc(C(F)(F)F)cc3)c2n1` (centres unmarked) [Example C232, 1-(5-{2-methyl-4-[4-(trifluoromethyl)phenyl]-3H,4H-[1,2,3]triazolo[4,5-b]indol-7-yl}-4,5-dihydro-1,2-oxazol-3-yl)-1H-1,2,3-triazole] showed an IC50 of 100 to 10000 nM. On to `Cn1nc2c3cc(C4CC(Oc5cncnc5)=NO4)ccc3n(-c3ccc(C(F)(F)F)cc3)c2n1` (centres unmarked) [Example C234, 5-[(5-{2-methyl-4-[4-(trifluoromethyl)-phenyl]-2H,4H-[1,2,3]triazolo[4,5-b]indol-7-yl}-4,5-dihydro-1,2-oxazol-3-yl)oxy]pyrimidine], for which the IC50 is 10 to 100 nM. Same read-out and setting: to `Cn1cc2c3cc(NC(=O)COC4CNC4)ccc3n(-c3ccc(C(F)(F)F)cc3)c2n1` [Example C243, 2-(azetidin-3-yloxy)-N-{2-methyl-8-[4-(trifluoromethyl)phenyl]-2H,8H-pyrazolo[3,4-b]indol-5-yl}acetamide formate] belongs 100 to 10000 nM; to `Cn1cc2c3cc(NC(=O)CC4CNC4)ccc3n(-c3ccc(C(F)(F)F)cc3)c2n1` [Example C244, 2-(azetidin-3-yl)-N-{2-methyl-8-[4-(trifluoromethyl)phenyl]-2H,8H-pyrazolo[3,4-b]indol-5-yl}acetamide formate], 100 to 10000 nM. Still for that read-out and setting: as for `CCCn1cc2c3cc(C(=O)N[C@@H](CO)c4ccccn4)ccc3n(-c3ccc(C(F)(F)F)cc3)c2n1` [Example C255, N-[(1R)-2-hydroxy-1-(pyridin-2-yl)ethyl]-2-propyl-8-[4-(trifluoromethyl)phenyl]-2H,8H-pyrazolo[3,4-b]indole-5-carboxamide], the figure is more than 10000 nM; as for `CCn1cc2c3cc(C(=O)N[C@@H](CO)c4ccccn4)ccc3n(-c3ccc(C(F)(F)F)cc3)c2n1` [Example C256, 2-ethyl-N-[(1R)-2-hydroxy-1-(pyridin-2-yl)ethyl]-8-[4-(trifluoromethyl)phenyl]-2H,8H-pyrazolo[3,4-b]indole-5-carboxamide], 1 to 10 nM; as for `Cn1nc2c3cc(C(=O)O)ccc3n(-c3ccc(C(F)(F)F)cc3F)c2n1` [Example C258, 4-[2-fluoro-4-(trifluoromethyl)phenyl]-2-methyl-2H,4H-[1,2,3]triazolo[4,5-b]indole-7-carboxylic acid], 1 to 10 nM. `Cn1cc2c3cc(NC(=O)CC4(O)CNC4)ccc3n(-c3ccc(C(F)(F)F)cc3)c2n1` [Example C259, 2-(3-hydroxyazetidin-3-yl)-N-{2-methyl-8-[4-(trifluoromethyl)phenyl]-2H,8H-pyrazolo[3,4-b]indol-5-yl}acetamide Formate] gave an IC50 of 100 to 10000 nM.

Still in this test, the particulars now being: SK-HEP-1 reporter assay; class symbols.
With `Cn1cnc2c1c1cc(C3CC(Oc4cncnc4)=NO3)ccc1n2-c1ccc(C(F)(F)F)cc1` (centres unmarked) [Example C215, 5-[(5-{1-methyl-4-[4-(trifluoromethyl)phenyl]-1H,4H-imidazo[4,5-b]indol-7-yl}-4,5-dihydro-1,2-oxazol-3-yl)oxy]pyrimidine], the IC50 lay in the range of 100 to 10000 nM.

The values above are taken from patent US20240270748A1 (Merck Patent GmbH, priority 2021, published 2024).
